According to US20040219105A1, “Human hookworm model and method for maintaining human hookworm in a non-human primate” (priority 2003, published 2004):

Tested on: whole blood basophils
Experiment: Whole blood basophil histamine release (Histamine Assay Kit)
Assay type: cell-based, marmoset (Callithrix jacchus)
Settings: whole blood of hookworm-infected animals; 5 out of 6 animals
Description: Furthermore, whole blood basophils collected from the animals were challenged for their ability to release histamine. One hundred (100) μl of whole blood was collected from the primates into heparinized tubes and the volume was made up to 500 μl using PIPES buffer (0.01 M Piperazine-N′N-bis[2-ethaneculfonic acid], 0.14 M sodium acetate, 5 mM potassium acetate, 0.1% glucose, 1 mM CaCl2 and 0.03% human serum albumin, pH 7.4). Spontaneous histamine release was assessed following incubation for 1 h at 37° C., while total histamine release was assessed when 50 μl of whole blood in 450 μl dH2O was freeze-thawed three times. […] Histamine released in each whole blood challenge was detected using a Histamine Assay Kit (Hycor Biomedical Ltd.). […] Antibody binding was visualised by the addition of 100 μl of 1 mg/ml of p-nitrophenyl phosphate (pNPP) substrate The plates were developed for 1 h at 37° C. and the absorbance measured at 405 nm using a Dynex MRX absorbance microplate reader (DYNEX Technologies, Chantilly, Va.). For all samples and calibrators the percentage binding was determined by the following: [formula]
A standard curve was constructed by plotting the Percentage Binding against concentration for each histamine calibrator, and the levels of histamine in each challenge were determined from this curve.

Substance: calreticulin
- basophil histamine release: significant histamine release
